Results published in PubChem BioAssay (NCI).
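Step 1: Grow cells in 96-well plates. Step 2: Expose to compound for 48 hours at 5 concentrations. Step 3: Interpolate endpoints linearly; if unreached, use highest concentration. GI50: concentration for 50% inhibition of growth. At the TGI there is no net growth.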

What was measured:
Test in all cases: NCI tumour cell line growth inhibition, 48 h
[1] = system: HOP-62 NSCLC
[2] = system: HS 578T breast
[3] = system: IGROV1 ovarian
[4] = system: UACC-62 melanoma
[5] = system: SNB-19 CNS
[6] = system: SN12C renal
[7] = system: NCI/ADR-RES ovarian
[8] = system: KM12 colon
[9] = system: K-562 leukemia
[10] = system: MOLT-4 leukemia
[11] = system: MALME-3M melanoma
[12] = system: SF-268 CNS
[13] = system: SR leukemia
[14] = system: OVCAR-4 ovarian
[15] = system: MDA-MB-435
[16] = system: SK-MEL-5 melanoma
[17] = system: PC-3 prostate
[18] = system: U251 CNS
[19] = system: SK-MEL-2 melanoma
[20] = system: NCI-H460 lung
[21] = system: HL-60(TB) leukemia
[22] = system: ACHN renal
[23] = system: LOX IMVI melanoma
[24] = system: COLO 205 colon
[25] = system: HCT-15 colon
[26] = system: SW-620 colon
[27] = system: A498 renal
[28] = system: NCI-H522 lung
[29] = system: 786-0 renal
[30] = system: NCI-H226 lung
[31] = system: RXF 393 renal
[32] = system: UO-31 renal
[33] = system: HOP-92 NSCLC
[34] = system: UACC-257 melanoma
[35] = system: OVCAR-8 ovarian
[36] = system: TK-10 renal
[37] = system: SF-295 CNS
[38] = system: HCC-2998 colon
[39] = system: SNB-75 CNS
[40] = system: CAKI-1 renal
[41] = system: MDA-MB-231 breast
[42] = system: HT29 colon
[43] = system: CCRF-CEM leukemia
[44] = system: MCF7 breast
[45] = system: DU-145 prostate
[46] = system: EKVX NSCLC
[47] = system: HCT-116 colon
[48] = system: SF-539 CNS
[49] = system: A549 NSCLC
[50] = system: SK-MEL-28 melanoma
[51] = system: RPMI-8226 leukemia
[52] = system: OVCAR-5 ovarian
[53] = system: M14 melanoma
[54] = system: SK-OV-3 ovarian
[55] = system: T-47D breast
[56] = system: NCI-H23 lung
[57] = system: OVCAR-3 ovarian
[58] = system: BT-549 breast

For `CN1CCN(C)C1c1ccc(C2N(C)CCN2C)cc1`, the GI50 [1] was 82.8 µM, the TGI [1] was > 100 µM and the GI50 [2] was 64 µM. The TGI [2] was > 100 µM, the GI50 [3] was > 100 µM and the TGI [3] was > 100 µM. The GI50 [4] was 56.9 µM, the TGI [4] was > 100 µM and the GI50 [5] was 39.5 µM. For the same compound, the TGI [5] was > 100 µM, the GI50 [6] was 31.4 µM and the TGI [6] was > 100 µM. The GI50 [7] was 90.1 µM, the TGI [7] was > 100 µM and the GI50 [8] was 46.5 µM. The TGI [8] was > 100 µM, the GI50 [9] was 38.5 µM and the TGI [9] was > 100 µM. The GI50 [10] was 26.1 µM, the TGI [10] was 62 µM and the GI50 [11] was > 100 µM. The TGI [11] was > 100 µM, the GI50 [12] was 39.8 µM and the TGI [12] was > 100 µM. For the same compound, the GI50 [13] was 28.5 µM, the TGI [13] was > 100 µM and the GI50 [14] was 38.3 µM. The TGI [14] was > 100 µM, the GI50 [15] was 34.5 µM and the TGI [15] was > 100 µM. For the same compound, the GI50 [16] was 24.4 µM, the TGI [16] was 89.7 µM and the GI50 [17] was > 100 µM. For the same compound, the TGI [17] was > 100 µM, the GI50 [18] was 39.7 µM and the TGI [18] was > 100 µM. For the same compound, the GI50 [19] was > 100 µM, the TGI [19] was > 100 µM and the GI50 [20] was > 100 µM. The TGI [20] was > 100 µM, the GI50 [21] was 37.7 µM and the TGI [21] was > 100 µM. The GI50 [22] was 80 µM, the TGI [22] was > 100 µM and the GI50 [23] was 31.3 µM. The TGI [23] was > 100 µM, the GI50 [24] was 23 µM and the TGI [24] was 65.2 µM. The GI50 [25] was 77.7 µM, the TGI [25] was > 100 µM and the GI50 [26] was 25 µM. The TGI [26] was > 100 µM, the GI50 [27] was 14.4 µM and the TGI [27] was > 100 µM. The GI50 [28] was > 100 µM, the TGI [28] was > 100 µM and the GI50 [29] was > 100 µM. For the same compound, the TGI [29] was > 100 µM, the GI50 [30] was > 100 µM and the TGI [30] was > 100 µM. The GI50 [31] was > 100 µM, the TGI [31] was > 100 µM and the GI50 [32] was > 100 µM. For the same compound, the TGI [32] was > 100 µM, the GI50 [33] was > 100 µM and the TGI [33] was > 100 µM. For the same compound, the GI50 [34] was > 100 µM, the TGI [34] was > 100 µM and the GI50 [35] was 38.4 µM. For the same compound, the TGI [35] was > 100 µM, the GI50 [36] was > 100 µM and the TGI [36] was > 100 µM. The GI50 [37] was > 100 µM, the TGI [37] was > 100 µM and the GI50 [38] was 40.5 µM. For the same compound, the TGI [38] was > 100 µM, the GI50 [39] was > 100 µM and the TGI [39] was > 100 µM. The GI50 [40] was > 100 µM, the TGI [40] was > 100 µM and the GI50 [41] was 18.3 µM. The TGI [41] was 96.1 µM, the GI50 [42] was 21.2 µM and the TGI [42] was 56.4 µM. The GI50 [43] was 29.8 µM, the TGI [43] was > 100 µM and the GI50 [44] was 20.1 µM. The TGI [44] was > 100 µM, the GI50 [45] was 30.2 µM and the TGI [45] was > 100 µM. For the same compound, the GI50 [46] was > 100 µM, the TGI [46] was > 100 µM and the GI50 [47] was 17.8 µM. For the same compound, the TGI [47] was 38 µM, the GI50 [48] was 35.6 µM and the TGI [48] was > 100 µM. For the same compound, the GI50 [49] was > 100 µM, the TGI [49] was > 100 µM and the GI50 [50] was 67.8 µM. For the same compound, the TGI [50] was > 100 µM, the GI50 [51] was 19.3 µM and the TGI [51] was 59.1 µM. For the same compound, the GI50 [52] was 86.4 µM, the TGI [52] was > 100 µM and the GI50 [53] was 18.6 µM. For the same compound, the TGI [53] was 58.2 µM, the GI50 [54] was > 100 µM and the TGI [54] was > 100 µM. For the same compound, the GI50 [55] was 20.4 µM, the TGI [55] was > 100 µM and the GI50 [56] was 45.7 µM. The TGI [56] was > 100 µM, the GI50 [57] was 41.8 µM and the TGI [57] was > 100 µM.
`CCCCCN(CCCCC)CCC[C@@H](C)[C@H]1CC[C@H]2[C@@H]3[C@H](OCCCN)C[C@@H]4C[C@H](OCCCN)CC[C@]4(C)[C@H]3C[C@H](OCCCN)[C@]12C` gave a GI50 [1] of 5.23 µM, a TGI [1] of 23.5 µM and a GI50 [3] of 2.72 µM. It also gave a TGI [3] of 15 µM, a GI50 [4] of 1.56 µM and a TGI [4] of 6.41 µM. It also gave a GI50 [5] of 7.9 µM, a TGI [5] of 24.3 µM and a GI50 [6] of 4.33 µM. It also gave a TGI [6] of 18.8 µM, a GI50 [7] of 12.1 µM and a TGI [7] of 37.7 µM. The GI50 [8] was 3.59 µM, the TGI [8] was 17 µM and the GI50 [9] was 1.84 µM. It also gave a TGI [9] of 4.33 µM, a GI50 [10] of 3.85 µM and a TGI [10] of 14.4 µM. The GI50 [11] was 4.8 µM, the TGI [11] was 17.7 µM and the GI50 [12] was 13.6 µM. It also gave a TGI [12] of 31.5 µM, a GI50 [13] of 2.38 µM and a TGI [13] of 9.28 µM. It also gave a GI50 [14] of 14.3 µM, a TGI [14] of 32.6 µM and a GI50 [15] of 1.98 µM. For the same compound, the TGI [15] was 4.93 µM, the GI50 [16] was 3.85 µM and the TGI [16] was 16.2 µM. It also gave a GI50 [17] of 11.6 µM, a TGI [17] of 24.8 µM and a GI50 [18] of 4.53 µM. For the same compound, the TGI [18] was 18.4 µM, the GI50 [19] was 15.1 µM and the TGI [19] was 31.3 µM. It also gave a GI50 [20] of 2.79 µM, a TGI [20] of 17.3 µM and a GI50 [58] of 3.27 µM. For the same compound, the TGI [58] was 8.37 µM, the GI50 [21] was 2.14 µM and the TGI [21] was 5.81 µM. For the same compound, the GI50 [22] was 8.8 µM, the TGI [22] was 35 µM and the GI50 [23] was 2.16 µM. The TGI [23] was 10.2 µM, the GI50 [24] was 5.89 µM and the TGI [24] was 22.8 µM. For the same compound, the GI50 [25] was 15.4 µM, the TGI [25] was > 100 µM and the GI50 [26] was 4.79 µM. For the same compound, the TGI [26] was 20.2 µM, the GI50 [27] was 10.2 µM and the TGI [27] was 60.7 µM. For the same compound, the GI50 [28] was 2.98 µM, the TGI [28] was 12.3 µM and the GI50 [29] was 8.26 µM. It also gave a TGI [29] of 24 µM, a GI50 [30] of 5.11 µM and a TGI [30] of 24.8 µM. It also gave a GI50 [31] of 11.9 µM, a TGI [31] of 32.7 µM and a GI50 [32] of 14.1 µM. It also gave a TGI [32] of 51.7 µM, a GI50 [33] of 0.68 µM and a TGI [33] of 6.45 µM. The GI50 [34] was 13.5 µM, the TGI [34] was 28.6 µM and the GI50 [35] was 7.39 µM. The TGI [35] was 22.9 µM, the GI50 [37] was 3.03 µM and the TGI [37] was 21.8 µM. For the same compound, the GI50 [38] was 7.98 µM, the TGI [38] was 24.9 µM and the GI50 [39] was 7.52 µM. The TGI [39] was 22.8 µM, the GI50 [40] was 40.7 µM and the TGI [40] was > 100 µM. The GI50 [41] was 4.41 µM, the TGI [41] was 19.7 µM and the GI50 [42] was 2.65 µM. The TGI [42] was 15.3 µM, the GI50 [43] was 4.47 µM and the TGI [43] was 20.5 µM. For the same compound, the GI50 [44] was 14.5 µM, the TGI [44] was 34.7 µM and the GI50 [45] was 11.1 µM. It also gave a TGI [45] of 23.6 µM, a GI50 [47] of 2.4 µM and a TGI [47] of 14.7 µM. The GI50 [48] was 1.94 µM, the TGI [48] was 4.3 µM and the GI50 [49] was 5 µM. For the same compound, the TGI [49] was 21.9 µM, the GI50 [50] was 2.46 µM and the TGI [50] was 12.5 µM. It also gave a GI50 [51] of 1.84 µM, a TGI [51] of 4.71 µM and a GI50 [52] of 10.3 µM. For the same compound, the TGI [52] was 23.4 µM, the GI50 [53] was 6.03 µM and the TGI [53] was 22.5 µM. For the same compound, the GI50 [54] was 15.9 µM, the TGI [54] was 34.9 µM and the GI50 [55] was 10 µM. The TGI [55] was 30.3 µM, the GI50 [56] was 4.36 µM and the TGI [56] was 20.6 µM. For the same compound, the GI50 [57] was 17 µM and the TGI [57] was 36.1 µM.
